According to patent US20060281763A1, “Carboxamide inhibitors of TGFbeta” (priority 2005, published 2006):

Target: T1, TGFβ R1 (Homo sapiens, UniProt P36897)
T1 sequence (P36897 34-503): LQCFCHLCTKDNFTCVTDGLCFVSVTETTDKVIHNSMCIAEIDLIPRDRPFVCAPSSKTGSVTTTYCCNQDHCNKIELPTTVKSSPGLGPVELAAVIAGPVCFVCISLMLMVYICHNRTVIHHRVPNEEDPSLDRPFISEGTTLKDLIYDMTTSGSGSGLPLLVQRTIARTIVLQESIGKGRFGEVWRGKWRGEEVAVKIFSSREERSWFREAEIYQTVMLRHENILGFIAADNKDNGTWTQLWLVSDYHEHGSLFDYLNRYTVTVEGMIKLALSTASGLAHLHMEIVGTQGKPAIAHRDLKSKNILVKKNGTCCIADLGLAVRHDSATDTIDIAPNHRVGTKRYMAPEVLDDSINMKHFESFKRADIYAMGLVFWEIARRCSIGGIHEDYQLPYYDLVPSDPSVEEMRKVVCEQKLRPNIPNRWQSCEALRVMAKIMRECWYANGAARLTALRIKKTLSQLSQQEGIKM
Test: TGFβ R1 autophosphorylation protocol (33P-ATP, phosphocellulose filter plate)
Assay type: biochemical
Details: 10 uM ATP, 170 nM TGFβ R1, 20 minutes at room temperature, read-out: IC50 for Kinase Inhibition
Description: The compounds of the invention were tested for their ability to inhibit TGFβ by a TGFβ R^1 autophosphorylation protocol. This was conducted as follows: Compound dilutions and reagents were prepared fresh daily. Compounds were diluted from DMSO stock solutions to 2 times the desired assay concentration, keeping final DMSO concentration in the assay less than or equal to 1%. TGFβ R1 was diluted to 4 times the desired assay concentration in buffer+DTT. ATP was diluted into 4× reaction buffer, and gamma-^33P-ATP was added at 60 uCi/mL.
The assay was performed by adding 10 ul of the enzyme to 20 ul of the compound solution. The reaction was initiated by the addition of 10 ul of ATP mix. Final assay conditions included 10 uM ATP, 170 nM TGFβ R1, and […] in 20 mM MOPS, pH7. The reactions were incubated at room temperature for 20 minutes. The reactions were stopped by transferring 23 ul of reaction mixture onto a phosphocellulose 96-well filter plate, which had been pre-wetted with 15 ul of 0.25M H3PO4 per well. After 5 minutes, the wells were washed 4× with 75 mM H3PO4 and once with 95% ethanol. The plate was dried, scintillation cocktail was added to each well, and the wells were counted in a Packard TopCount microplate scintillation counter.

Row | IC50 [nM] | SMILES
1 | 1160 | COc1cnc(-c2cc(Cl)ccc2F)nc1Nc1ccncc1C(=O)NC[C@H]1O[C@@H](O)[C@H](O)[C@@H](O)[C@@H]1O [Compound 34, 4-[2-(5-Chloro-2-fluoro-phenyl)-5-methoxy-pyrimidin-4-ylamino)-N-(3,4,5,6-tetahydroxy-tetrahrydro-pyran-2-ylmethyl)-nicotinamide]
2 | 670 | COc1cnc(-c2cc(Cl)ccc2F)nc1Nc1ccncc1C(=O)NCC(F)F [Compound 36, 4-[2-(5-Chloro-2-fluoro-phenyl)-5-methoxy-pyrimidin-4-ylamino]-N-(2,2-difluoro-ethyl)-nicotinamide]
3 | 160 | COc1cnc(-c2cc(Cl)ccc2F)nc1Nc1ccncc1C(=O)NCC(F)(F)F [Compound 37, 4-[2-(5-Chloro-2-fluoro-phenyl)-5-methoxy-pyrimidin-4-ylamino]-N-(2,2,2-trifluoro-ethyl)-nicotinamide]
4 | 540 | COc1cnc(-c2cc(Cl)ccc2F)nc1Nc1ccncc1C(=O)NCCCN1CCN(C)CC1 [Compound 38, 4-[2-(5-Chloro-2-fluoro-phenyl)-5-methoxy-pyrimidin-4-ylamino]-N-[3-(4-methyl-piperazin-1-yl)-propyl]-nicotinamide]
5 | 50 | COc1cnc(-c2cc(Cl)ccc2F)nc1Nc1ccncc1C(=O)NCCN [Compound 39, N-(2-Amino-ethyl)-4-[2-(5-chloro-2-fluoro-phenyl)-5-methoxy-pyrimidin-4-ylamino]-nicotinamide]
6 | 50 | CN/C(=N\C#N)NCCCNC(=O)c1cnccc1Nc1nc(-c2cc(Cl)ccc2F)ncc1OC [Compound 41]
7 | 120 | COc1cnc(-c2cc(Cl)ccc2F)nc1Nc1ccncc1C(=O)NCCCN/C(=N/C#N)NC(C)C [Compound 42]
8 | 60 | COc1cnc(-c2cc(Cl)ccc2F)nc1Nc1ccncc1C(=O)NCCCN/C(=N/C#N)N1CCOCC1 [Compound 43]
9 | 130 | COc1cnc(-c2cc(Cl)ccc2F)nc1Nc1ccncc1C(=O)NCCCN/C(=N/C#N)N1CCC1 [Compound 44]
10 | 20 | CN(C)c1cnc(-c2cc(Cl)ccc2F)nc1Nc1ccncc1C(=O)NCCNCCO [Compound 50]
11 | 120 | CN(C)c1cnc(-c2cc(Cl)ccc2F)nc1Nc1ccncc1C(=O)NCC(C)(C)O [Compound 51]
12 | 90 | CC(C)c1cnc(-c2cc(Cl)ccc2F)nc1Nc1ccncc1C(=O)NCC(C)(C)O [Compound 52, 4-[2-(5-Chloro-2-fluoro-phenyl)-5-isopropyl-pyrimidin-4-ylamino]-N-(2-hydroxy-2-methyl-propyl)-nicotinamide]
13 | 130 | COc1cnc(-c2cc(Cl)ccc2F)nc1Nc1ccncc1C(=O)NC[C@H](O)[C@@H](O)CN [Compound 55, N-(4-Amino-2,3-dihydroxy-butyl)-4-[2-(5-chloro-2-fluoro-phenyl)-5-methoxy-pyrimidin-4-ylamino]-nicotinamide]
14 | 1200 | COc1cnc(-c2cc(Cl)ccc2F)nc1Nc1ccncc1C(=O)NCC(C)C(=O)O (stereo not drawn) [Compound 56, 3-({4-[2-(5-Chloro-2-fluoro-phenyl)-5-methoxy-pyrimidin-4-ylamino)-pyridine-3-carbonyl)-amino)-2-methyl-propionic acid]
15 | 70 | COc1cnc(-c2cc(Cl)ccc2F)nc1Nc1ccncc1C(=O)NCCn1cccc1 [Compound 57, 4-[2-(5-Chloro-2-fluoro-phenyl)-5-methoxy-pyrimidin-4-ylamino]-N-(2-pyrrol-1-yl-ethyl)-nicotinamide]
16 | 470 | COc1cnc(-c2cc(Cl)ccc2F)nc1Nc1ccncc1C(=O)NCC(C)(C)O [Compound 58, 4-[2-(5-Chloro-2-fluoro-phenyl)-5-methoxy-pyrimidin-4-ylamino]-N-(2-hydroxy-2-methyl-propyl)-nicotinamide]
17 | 11800 | COc1cnc(-c2cc(Cl)ccc2F)nc1Nc1ccncc1C(=O)NCC1(O)CCCCC1 [Compound 61, 4-[2-(5-Chloro-2-fluoro-phenyl)-5-methoxy-pyrimidin-4-ylamino]-N-(1-hydroxy-cyclohexylmethyl)-nicotinamide]

Row | IC50 [nM] | SMILES
18 | 360 | COc1cnc(-c2cc(Cl)ccc2F)nc1Nc1ccncc1C(=O)N[C@@H]1CCOC1=O [Compound 62, 4-[2-(5-Chloro-2-fluoro-phenyl)-5-methoxy-pyrimidin-4-ylamino]-N-(2-oxo-tetrahydro-furan-3-yl)-nicotinamide]
19 | 100 | COc1cnc(-c2cc(Cl)ccc2F)nc1Nc1ccncc1C(=O)NCC(O)CN (stereo not drawn) [Compound 63, N-(3-Amino-2-hydroxy-propyl)-4-[2-(5-chloro-2-fluoro-phenyl)-5-methoxy-pyrimidin-4-ylamino]-nicotinamide]
20 | 890 | COc1cnc(-c2cc(Cl)ccc2F)nc1Nc1ccncc1C(=O)NCCCNC(=O)NC1CCCCC1 [Compound 64, 4-[2-(5-Chloro-2-fluoro-phenyl)-5-methoxy-pyrimidin-4-ylamino]-N-[3-(3-cyclohexyl-ureido)-propyl]-nicotinamide]
21 | 590 | COc1cnc(-c2cc(Cl)ccc2F)nc1Nc1ccncc1C(=O)NCCCNC(=O)Nc1ccccc1 [Compound 65, 4-[2-(5-Chloro-2-fluoro-phenyl)-5-methoxy-pyrimidin-4-ylamino]-N-[3-(3-phenyl-ureido)-propyl]-nicotinamide]
22 | 270 | COc1cnc(-c2cc(Cl)ccc2F)nc1Nc1ccncc1C(=O)NCCCNC(=O)NC(C)C [Compound 66, 4-[2-(5-Chloro-2-fluoro-phenyl)-5-methoxy-pyrimidin-4-ylamino]-N-[3-(3-isopropyl-ureido)-propyl]-nicotinamide]
23 | 440 | COc1ccc(NC(=O)NCCCNC(=O)c2cnccc2Nc2nc(-c3cc(Cl)ccc3F)ncc2OC)cc1OC [Compound 67, 4-[2-(5-Chloro-2-fluoro-phenyl)-5-methoxy-pyrimidin-4-ylamino]-N-{3-[3-(3,4-dimethoxy-phenyl)-ureido]-propyl}-nicotinamide]
24 | 1540 | CNC(=O)NCCNC(=O)c1cnccc1Nc1nc(-c2cc(Cl)ccc2F)ncc1OC [Compound 68, 4-[2-(5-chloro-2-fluoro-phenyl)-5-methoxy-pyrimidin-4-ylamino]-N-[2-(3-methyl-ureido)-ethyl]nicotinamide]
25 | 150 | CCNC(=O)NCCNC(=O)c1cnccc1Nc1nc(-c2cc(Cl)ccc2F)ncc1OC [Compound 69, 4-[2-(5-Chloro-2-fluoro-phenyl)-5-methoxy-pyrimidin-4-ylamino]-N-[2-(3-ethyl-ureido)-ethyl]-nicotinamide]
26 | 200 | COc1cnc(-c2cc(Cl)ccc2F)nc1Nc1ccncc1C(=O)NCCC(N)=O [Compound 70, N-(2-Carbamoyl-ethyl)-4-[2-(5-choro-2-fluoro-phenyl)-5-methoxy-pyrimidin-4-ylamino]-nicotinamide]
27 | 760 | COc1cnc(-c2cc(Cl)ccc2F)nc1Nc1ccncc1C(=O)NCCNc1ccccc1 [Compound 71, 4-[2-(5-Chloro-2-fluoro-phenyl)-5-methoxy-pyrimidin-4-ylamino]-N-(2-phenylamino-ethyl)-nicotinamide]
28 | 100 | COc1cnc(-c2cc(Cl)ccc2F)nc1Nc1ccncc1C(=O)NCCC#N [Compound 72, 4-[2-(5-Chloro-2-fluoro-phenyl)-5-methoxy-pyrimidin-4-ylamino]-N-(2-cyano-ethyl)-nicotinamide]
29 | 360 | COc1cnc(-c2cc(Cl)ccc2F)nc1Nc1ccncc1C(=O)NCC(O)CN1CCOCC1 (stereo not drawn) [Compound 73, 4-[2-(5-Chloro-2-fluoro-phenyl)-5-methoxy-pyrimidin-4-ylamino]-N-(2-hydroxy-3-morpholin-4-yl-propyl)-nicotinamide]
30 | 150 | CNC(=O)NCCCNC(=O)c1cnccc1Nc1nc(-c2cc(Cl)ccc2F)ncc1OC [Compound 74, 4-[2-(5-Chloro-2-fluoro-phenyl)-5-methoxy-pyrimidin-4-ylamino]-N-[3-(3-methyl-ureido)-propyl]-nicotinamide]
31 | 110 | CCNC(=O)NCCCNC(=O)c1cnccc1Nc1nc(-c2cc(Cl)ccc2F)ncc1OC [Compound 75]
32 | 320 | COc1cnc(-c2cc(Cl)ccc2F)nc1Nc1ccncc1C(=O)NCCCNC(=O)Nc1ccc2c(c1)OCO2 [Compound 76, N-[3-(3-Benzo[1,3]dioxol-5-yl-ureido)-propyl]-4-[2-(5-chloro-2-fluoro-phenyl)-5-methoxy-pyrimidin-4-ylamino]-nicotinamide]
33 | 40 | COc1cnc(-c2cc(Cl)ccc2F)nc1Nc1ccncc1C(=O)NCCCN1CC[C@@H](O)C1 [Compound 77, 4-[2-(5-Chloro-2-fluoro-phenyl)-5-methoxy-pyrimidin-4-ylamino]-N-[3-(3-hydroxy-pyrrolidin-1-yl)-propyl]-nicotinamide]
